Experimental data published in patent US11248016B2, “Glycolipids and pharmaceutical compositions thereof for use in therapy” (THE UNIVERSITY OF NOTTINGHAM, priority 2014, dated 2022).

What was measured:
breast cancer cells MCF7 = experiment: Cell proliferation, MCF7; assay type: cell-based; conditions: 96 hours, Formula II only
Method: Growth of MCF7 cell lines were slowed by the treatment with a compound of Formula II. Experiment represents 6 biological repetitions, Error=S.E.M.
(§1) Prior to treatment cells were cultured to an appropriate confluency in 96 well tissue culture plates (Fisher). Cells remained either supplemented with fresh media or treated with fresh media containing active or an equivalent volume of DMSO (vehicle control). Where used, Cisplatin™ was diluted to a stock concentration in Dimethylformamide (DMF), then handled as per the manufacturer's instructions. To determine relative cell viability, reagents WST-1 (Roche) or MTT (Sigma) were used as per the manufacturer's instructions and absorbance at 450 nm measured using a Victor plate reader (Perkin Elmer).

[1] = system: A549 lung carcinoma cells; experiment: Cell proliferation, A549 (WST-1 / MTT); assay type: cell-based
Method: Cisplatin™ resistant A549 lung cancer cells were sensitised to treatment with a compound of Formula II in combination with 1 μM Cisplatin™—a complete kill is achieved at higher doses of a compound of Formula II.
Cells were treated with a range of doses of active for either 48 or 96 hrs. Each data point is representaive of at least 4 biological repetitions.
Cells were treated with either 2 μM Cisplatin™ alone, c. 1 μg active alone or c. 1 μg active in combination with 2 μM Cisplatin™. A WST-1 cell proliferation assay was performed 96 hrs after treatment. Experiment represents 4 independent biological repetitions.
A WST-1 cell proliferation assay was performed 72 hrs after treatment. Experiment represents 4 independent biological repetitions.
Cells were treated with either 2 μM or 10 μM Cisplatin™ alone, or 10 μg synthetic molecule Formula II in combination with 2 μM Cisplatin™. A WST-1 cell proliferation assay was performed 72 hrs after treatment. Experiment represents 4 independent biological repetitions. A 5-fold increase in the efficacy of Cisplatin™ is observed when treated in combination with the synthetic Formula II.
Cells were treated with either 2 μM, 5 μM or 10 μM Cisplatin™ alone, 50 μg synthetic acetyl derivative molecule or 30 μg in combination with 2 μM Cisplatin™. A WST-1 cell proliferation assay was performed 72 hrs after treatment. Experiment represents four independent biological repetitions. No effect was detected after treatment with 50 μg synthetic acetyl derivative, however an 8-fold increase in the efficacy of Cisplatin™ is observed when treated in combination with 30 μg synthetic acetyl derivative and […] Cisplatin™.
FIG. 11—Natural molecule plus cisplatin compared to Hippuristanol plus cisplatin. […] The ratio between anti-proliferative activity to chemo sensitizing activity is also equivalent.
FIG. 13—Dose curves of compounds 46, 99 and 123. […] Cells were treated with a range of doses of active for 96 hrs. Each data point is representative of at least 4 biological repetitions and error=s.e.m).
FIG. 14—Cisplatin™ combination experiments—Compounds 46, 99 and 123. […] Cells were treated with a range of doses of active in combination with a range of doses of Cisplatin™ for 96 hrs. Each data point is representative of at least 4 biological repetitions and error=s.e.m).
as §1

[2] = system: primary canine histocytic sarcoma tumour cells; experiment: Primary canine tumour cell experiments; assay type: cell-based, dog; conditions: Cisplatin (10 μM) plus Formula II, 6 days
Method: Cells were cultured for 6 days with a single dose treatment of Cisplatin™ (10 μM) or a combination of Cisplatin™ plus a compound of Formula II (active). Images were taken after 6 days treatment and are representative of three independently treated wells. Each image (40× magnification) represents the majority of the well area and is of an equivalent area in each photograph.
Known inhibitors of protein synthesis such as hippuristanol have proven potent anti-cancer properties when used in combination with chemotherapeutic agents such as Cisplatin™ or Doxorubicin™. However hippuristanol is naturally found in coral to is scarce and expensive to obtain, furthermore it is very difficult and expensive to synthesise. […] In particular this combination has a potent effect at slowing proliferation or killing cancer cells. Slow growing and difficult to treat tumour cell types such as A549 lung cancer cells, SH-SY5Y neuroblastoma or SKOV-3 cancer cells are all sensitised by exposure to Formula II to very low doses of Cisplatin™ (FIGS. 4d, 4e, 4f and 7)—a complete kill can be achieved in both A549 and SH-SY5Y cells after a single dose treatment with g quantities of a compound of Formula II in combination with 1 μM or 2.5 μM treatments of Cisplatin™. […]

[3] = system: beta secretases (BACE) 5′UTR; experiment: 5′UTR firefly luciferase reporter assay, BACE; assay type: cell-based, human; conditions: Neuroblastoma cells; FIG. 3d
Method: The 5′UTRs of genes which negatively associate with the progression of Alzheimer's disease—amyloid precursor protein (APP) and beta secretases (BACE) are all inhibited by treatment with a compound of Formula II, whereas the equivalent reporter levels of housekeeping genes actin and thioredoxin (TXN) are not inhibited. […] Neuroblastoma cells were transfected 24 hours prior to treatment with a compound of Formula II. After treatment, cells were prepared as described in the materials and methods. Each experiment represents between 6 and 8 biological repetitions.
Experiments conducted using Firefly luciferase reporter plasmids containing the 5′ untranslated regions (UTRs) of the genes amyloid precursor protein (APP), thioredoxin (TXN) were conducted with reagents and materials described by Bottley et al, 2010. Experiments conducted using Firefly luciferase reporter plasmids containing the 5′ UTRs of the genes EGFR, BACE1 and Actin were conducted with reagents and materials described by Webb, 2012 (http://etheses.nottingham.ac.uk/2724/). […]
Cells were transfected using FuGene 6 (Roche) following the manufacturer's instructions. The activities of firefly and renilla luciferase in lysates prepared from transfected cells were measured using a commercially available Luciferase reporter assay system (Promega) and light emission was measured over a 10 sec interval using a TECAN luminometer. […]

## CC/C=C\C/C=C\C/C=C\CCCCCCCC(=O)OC[C@H](COC1OC(CO)C(O)C(O)C1O)OC(=O)CCCCCCC/C=C\C/C=C\C/C=C\CC (stereo partly drawn) [Formula II, 1,2-dioctadecatienyl-3-O-β-D-galactosyl-sn-glycerol]
Breast cancer cells MCF7
  growth of MCF7 cells: slowed
[1]; 10 μg synthetic Formula II plus 2 μM Cisplatin, WST-1, 72 hrs, FIG. 9b
  increase in the efficacy of Cisplatin: 5 fold
[1]; 96 hours, plus 1 μM Cisplatin, higher doses of Formula II
  kill of A549 cells in combination with Cisplatin: complete kill
[1]; alone, FIG. 11
  anti-proliferative activity on A549 cells: anti-proliferative
[1]; c. 1 μg active plus 2 μM Cisplatin, WST-1, 96 hrs, FIG. 7
  efficacy of Cisplatin on A549 cells in combination: significant increase in the efficacy
[1]; in combination with Cisplatin (2 μM), FIG. 11
  sensitizing effect to Cisplatin on A549 cells: equivalent to hippuristanol
[1]; range of doses, 48 or 96 hrs, WST-1 and MTT, compound purified from natural source, FIG. 6
  growth of A549 cells: inhibits the growth
[1]; synthetic Formula II, WST-1, 72 hrs, FIG. 9a
  A549 cell growth, synthetic molecule: inhibited by Formula II in a dose dependent manner
[2]
  canine tumour cells after Cisplatin plus Formula II: substantially all tumour cells were killed
[3]
  firefly luciferase reporter activity, BACE 5′UTR: inhibited
